How the values were obtained:
[1] = target: T1, recombinant human Estrogen Receptor alpha ligand binding domain, residues 307-554 (ER alpha-LBD (GST)) (Homo sapiens, UniProt P03372); experiment: ERα binding assay (LanthaScreen TR-FRET competition); conditions: TR-FRET competition with Fluormone ES2 tracer, 4 hours at room temperature; single experiment or average of two or more
T1 construct: made in house
T1 sequence (P03372 307-554): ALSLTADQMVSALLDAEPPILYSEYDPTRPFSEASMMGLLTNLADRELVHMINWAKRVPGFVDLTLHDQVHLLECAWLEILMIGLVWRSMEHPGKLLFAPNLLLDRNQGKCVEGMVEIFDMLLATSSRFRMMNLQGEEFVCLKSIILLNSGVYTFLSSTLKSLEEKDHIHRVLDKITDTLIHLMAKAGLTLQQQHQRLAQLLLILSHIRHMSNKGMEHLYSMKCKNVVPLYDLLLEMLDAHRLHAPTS
Protocol: The ability of compounds to bind to isolated Estrogen Receptor Alpha Ligand binding domain (ER alpha-LBD (GST)) was assessed in competition assays using a LanthaScreen™ Time-Resolved Fluorescence Resonance Energy Transfer (TR-FRET) detection end-point. For the LanthaScreen TR-FRET endpoint, a suitable fluorophore (Fluormone ES2, ThermoFisher, Product code P2645) and recombinant human Estrogen Receptor alpha ligand binding domain, residues 307-554 (expressed and purified in-house) were used to measure compound binding. The assay principle is that ER alpha-LBD (GST) is added to a fluorescent ligand to form a receptor/fluorophore complex. A terbium-labelled anti-GST antibody (Product code PV3551) is used to indirectly label the receptor by binding to its GST tag, and competitive binding is detected by a test compound's ability to displace the fluorescent ligand, resulting in a loss of TR-FRET signal between the Tb-anti-GST antibody and the tracer. The assay was performed as follows with all reagent additions carried out using the Beckman Coulter BioRAPTR FRD microfluidic workstation: • 1. Acoustic dispense 120 nL of the test compound into a black low volume 384 well assay plates. • 2. Prepare 1×ER alpha-LBD/Tb-antiGST Ab in ES2 screening buffer and incubate for 15 minutes. • 3. Dispense 6 μL of the […] reagent into each well of the assay plate followed by 6 μL of Fluorophore reagent into each well of the assay plate • 4. Cover the assay plate to protect the reagents from light and evaporation, and incubate at room temperature for 4 hours. • 5. Excite at 337 nm and measure the fluorescent emission signal of each well at 490 nm and 520 nm using the BMG PheraSTAR.
Compounds were dosed directly from a compound source microplate containing serially diluted compound (4 wells containing 10 mM, […] and 10 nM final compound respectively) to an assay microplate using the Labcyte Echo 550. The Echo 550 is a liquid handler that uses acoustic technology to perform direct microplate-to-microplate transfers of DMSO compound solutions and the system can be programmed to transfer multiple small nL volumes of compound from the different source plate wells to give the desired serial dilution of compound in the assay which is then back-filled to normalise the DMSO concentration across the dilution range.
In total 120 nL of compound plus DMSO were added to each well and compounds were tested in a 12-point concentration response format over a final compound concentration range of 10, 2.917, 1.042, 0.2083, 0.1, 0.0292, 0.0104, 0.002083, 0.001, 0.0002917, 0.0001042, and 0.00001 μM respectively. TR-FRET dose response data obtained with each compound was exported into a suitable software package (such as Origin or Genedata) to perform curve fitting analysis. Competitive ER alpha binding was expressed as an IC50 value. This was determined by calculation of the concentration of compound that was required to give a 50% reduction in tracer compound binding to ER alpha-LBD.

[2] = target: T2, Estrogen Receptor (ERα) in MCF-7 human ductal carcinoma breast cell line (Homo sapiens, UniProt P03372); experiment: MCF-7 ER degradation assay (cell based immuno-fluorescence); conditions: MCF-7 cells; for DC50: 18-22 hours incubation, 50% reduction of ERα expression, single experiment or average of two or more, read-out: MCF-7 ER degradation IC50
T2 construct: endogenous in cells; host or cells: MCF-7
T2 sequence (P03372 1-595): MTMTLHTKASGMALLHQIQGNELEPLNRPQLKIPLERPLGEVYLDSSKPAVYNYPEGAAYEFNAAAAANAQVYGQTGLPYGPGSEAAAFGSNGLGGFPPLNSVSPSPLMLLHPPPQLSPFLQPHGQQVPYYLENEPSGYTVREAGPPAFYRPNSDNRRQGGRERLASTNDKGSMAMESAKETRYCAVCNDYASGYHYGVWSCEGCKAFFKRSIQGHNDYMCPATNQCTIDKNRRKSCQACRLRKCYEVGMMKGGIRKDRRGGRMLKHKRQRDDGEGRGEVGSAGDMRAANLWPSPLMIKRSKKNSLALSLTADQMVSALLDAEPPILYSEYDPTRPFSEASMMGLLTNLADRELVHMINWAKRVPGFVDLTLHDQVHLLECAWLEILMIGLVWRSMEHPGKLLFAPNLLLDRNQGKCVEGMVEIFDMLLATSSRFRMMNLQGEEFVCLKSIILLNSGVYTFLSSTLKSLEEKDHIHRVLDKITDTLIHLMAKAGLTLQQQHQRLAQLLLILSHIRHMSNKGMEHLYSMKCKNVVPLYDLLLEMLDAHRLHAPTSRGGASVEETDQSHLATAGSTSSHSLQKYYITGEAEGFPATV
Summary of the method: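 MCF-7 human ductal carcinoma breast cells were seeded at 3.75×10^4 cells per mL (40 μL per well) in 384 well plates with phenol red free DMEM containing 2 mM L-Glutamine and 5% (v/v) Charcoal/Dextran treated foetal calf serum. After overnight culture, compounds were acoustically dispensed, incubated 18-22 hours, then cells were formaldehyde-fixed and immunostained for ERα.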

SMILES | IC50 [1] [nM] | DC50 [2] [nM] | ER degradation ≥ 90% at 0.3 μM ([2]; 0.3 μM, ER degradation by fulvestrant at 0.3 μM is defined as 100%)
Cc1ncsc1-c1ccc(CNC(=O)[C@@H]2C[C@@H](O)CN2C(=O)[C@@H](NC(=O)CCCCCNCCCCOc2cc(F)c([C@@H]3c4[nH]c5ccccc5c4C[C@@H](C)N3CC(C)(C)F)c(F)c2)C(C)(C)C)cc1 [Example 145, (2S,4R)-1-((S)-2-(6-((4-(3,5-Difluoro-4-((1R,3R)-2-(2-fluoro-2-methylpropyl)-3-methyl-2,3,4,9-tetrahydro-1H-pyrido[3,4-b]indol-1-yl)phenoxy)butyl)amino)hexanamido)-3,3-dimethylbutanoyl)-4-hydroxy-N-(4-(4-methylthiazol-5-yl)benzyl)pyrrolidine-2-carboxamide] | 1.1 | 2.7 | 
Cc1ncsc1-c1ccc(CNC(=O)[C@@H]2C[C@@H](O)CN2C(=O)[C@@H](NC(=O)COCCCCOCCOc2ccc([C@@H]3c4[nH]c5ccccc5c4C[C@@H](C)N3CC(F)F)nc2)C(C)(C)C)cc1 [Example 24, (2S,4R)-1-((S)-2-(2-(4-(2-((6-((1S,3R)-2-(2,2-Difluoroethyl)-3-methyl-2,3,4,9-tetrahydro-1H-pyrido[3,4-b]indol-1-yl)pyridin-3-yl)oxy)ethoxy)butoxy)acetamido)-3,3-dimethylbutanoyl)-4-hydroxy-N-(4-(4-methylthiazol-5-yl)benzyl)pyrrolidine-2-carboxamide] | 18 | 300 | 
Cc1ncsc1-c1ccc(CNC(=O)[C@@H]2C[C@@H](O)CN2C(=O)[C@@H](NC(=O)CN(C)CCCCCOc2cc(F)c(C3c4[nH]c5ccccc5c4C[C@@H](C)N3CC(C)(C)F)c(F)c2)C(C)(C)C)cc1 (stereo partly drawn) [Example 90, (2S,4R)-1-((S)-2-(2-((5-(3,5-Difluoro-4-((1R,3R)-2-(2-fluoro-2-methylpropyl)-3-methyl-2,3,4,9-tetrahydro-1H-pyrido-[3,4-b]indol-1-yl)phenoxy)pentyl)(methyl)amino)acetamido)-3,3-dimethylbutanol)-4-hydroxy-N-(4-(4-methylthiazol-5-yl)benzyl)pyrrolidine-2-carboxamide] | 1.2 | 102 | 
Cc1ncsc1-c1ccc(CNC(=O)[C@@H]2C[C@@H](O)CN2C(=O)[C@@H](NC(=O)COCCCCCOc2cc(F)c([C@@H]3c4[nH]c5ccccc5c4C[C@@H](C)N3CC(F)(F)CO)c(F)c2)C(C)(C)C)cc1 [Example 70, (2S,4R)-1-((S)-2-(2-((5-(4-((1R,3R)-2-(2,2-Difluoro-3-hydroxypropyl)-3-methyl-2,3,4,9-tetrahydro-1H-pyrido[3,4-b]indol-1-yl)-3,5-difluorophenoxy)pentyl)oxy)acetamido)-3,3-dimethylbutanoyl)-4-hydroxy-N-(4-(4-methylthiazol-5-yl)benzyl)pyrrolidine-2-carboxamide] | 0.8 | 0.9 | 
Cc1ncsc1-c1ccc(CNC(=O)[C@@H]2C[C@@H](O)CN2C(=O)[C@@H](NC(=O)COCC#CC#CCOc2cc(F)c([C@@H]3c4[nH]c5ccccc5c4C[C@@H](C)N3CC(C)(C)F)c(F)c2)C(C)(C)C)cc1 [Example 50, (2S,4R)-1-((S)-2-(2-((6-(3,5-difluoro-4-((1R,3R)-2-(2-fluoro-2-methylpropyl)-3-methyl-2,3,4,9-tetrahydro-1H-pyrido[3,4-b]indol-1-yl)phenoxy)hexa-2,4-diyn-1-yl)oxy)acetamido)-3,3-dimethylbutanoyl)-4-hydroxy-N-(4-(4-methylthiazol-5-yl)benzyl)pyrrolidine-2-carboxamide] | 1.2 | 6.6 | 
Cc1ncsc1-c1ccc(CNC(=O)[C@@H]2C[C@@H](O)CN2C(=O)[C@@H](NC(=O)CCCNCCCCCCOc2cc(F)c([C@@H]3c4[nH]c5ccccc5c4C[C@@H](C)N3CC(C)(C)F)c(F)c2)C(C)(C)C)cc1 [Example 151, (2S,4R)-1-((S)-2-(4-((6-(3,5-Difluoro-4-((1R,3R)-2-(2-fluoro-2-methylpropyl)-3-methyl-2,3,4,9-tetrahydro-1H-pyrido[3,4-b]indol-1-yl)phenoxy)hexyl)amino)butanamido)-3,3-dimethylbutanoyl)-4-hydroxy-N-(4-(4-methylthiazol-5-yl)benzyl)pyrrolidine-2-carboxamide] | 3.6 | 54 | 
Cc1ncsc1-c1ccc(CNC(=O)[C@@H]2C[C@@H](O)CN2C(=O)[C@@H](NC(=O)CNCCCCCOc2cc(F)c([C@@H]3c4[nH]c5ccccc5c4C[C@@H](C)N3CC(C)(C)F)c(F)c2)C(C)(C)C)cc1 [Example 89, (2S,4R)-1-((S)-2-(2-((5-(3,5-Difluoro-4-((1R,3R)-2-(2-fluoro-2-methylpropyl)-3-methyl-2,3,4,9-tetrahydro-1H-pyrido[3,4-b]indol-1-yl)phenoxy)pentyl)amino)acetamido)-3,3-dimethylbutanoyl)-4-hydroxy-N-(4-(4-methylthiazol-5-yl)benzyl)pyrrolidine-2-carboxamide] | 0.7 | 0.7 | 
Cc1ncsc1-c1ccc(CNC(=O)[C@@H]2C[C@@H](O)CN2C(=O)[C@@H](NC(=O)COCCCOCCOc2cc(F)c([C@@H]3c4[nH]c5ccccc5c4C[C@@H](C)N3CC(C)(C)F)c(F)c2)C(C)(C)C)cc1 [Example 25, (2S,4R)-1-((S)-2-(2-(3-(2-(3,5-Difluoro-4-((1R,3R)-2-(2-fluoro-2-methylpropyl)-3-methyl-2,3,4,9-tetrahydro-1H-pyrido[3,4-b]indol-1-yl)phenoxy)ethoxy)propoxy)acetamido)-3,3-dimethylbutanoyl)-4-hydroxy-N-(4-(4-methylthiazol-5-yl)benzyl)pyrrolidine-2-carboxamide] | 0.5 |  | ••
Cc1ncsc1-c1ccc(CNC(=O)[C@@H]2C[C@@H](O)CN2C(=O)[C@@H](NC(=O)COCC/C=C/CCOc2ccc([C@@H]3c4[nH]c5ccccc5c4C[C@@H](C)N3CC(F)F)nc2)C(C)(C)C)cc1 [Example 21, (2S,4R)-1-((S)-2-(2-(((E)-6-((6-((1S,3R)-2-(2,2-Difluoroethyl)-3-methyl-2,3,4,9-tetrahydro-1H-pyrido[3,4-b]indol-1-yl)pyridin-3-yl)oxy)hex-3-en-1-yl)oxy)acetamido)-3,3-dimethylbutanoyl)-4-hydroxy-N-(4-(4-methylthiazol-5-yl)benzyl)pyrrolidine-2-carboxamide] | 13 | 300 | 

Source: patent US10519152B2, “Compounds and their use in treating cancer” (AstraZeneca AB, priority 2017, dated 2019)
